From the supplement of paper PMC10307832

Assays:
Assay in all cases: relative viability (nuclei count vs DMSO), 5 days (fraction); higher = more cells survive
IPA-3 + Trametinib = compound: C1=CC=C2C(=C1)C=CC(=C2SSC3=C(C=CC4=CC=CC=C43)O)O [IPA-3] + CC(=O)Nc1cccc(-n2c(=O)n(C3CC3)c(=O)c3c(Nc4ccc(I)cc4F)n(C)c(=O)c(C)c32)c1 [Trametinib] (partner 0.02 µM)
In short: (§1)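 A single step with final 0.05% Triton X-100, 1% formaldehyde and 1 ug/ml Hoechst fixed the cells and stained nuclei 5 days after treatment. Lung cancer cell lines in 1536-well plates had been treated by pin tool the day after seeding with one drug alone or a fixed anchor-drug dose plus five library-drug doses (not always all listed) in √10 steps, and nuclei were counted on 4× images. Relative viability is the ratio of nuclei in treated wells to nuclei in vehicle wells, taken as the median of duplicate plates.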

IPA-3 + Pemetrexed = compound: C1=CC=C2C(=C1)C=CC(=C2SSC3=C(C=CC4=CC=CC=C43)O)O [IPA-3] + Nc1nc2[nH]cc(CCc3ccc(C(=O)N[C@@H](CCC(=O)O)C(=O)O)cc3)c2c(=O)[nH]1 [Pemetrexed] (partner 0.2 µM)
In short: as §1

RAF265 + Alpelisib = compound: Cn1c(Nc2ccc(C(F)(F)F)cc2)nc2cc(Oc3ccnc(-c4ncc(C(F)(F)F)[nH]4)c3)ccc21 [RAF265] + Cc1nc(NC(=O)N2CCC[C@H]2C(N)=O)sc1-c1ccnc(C(C)(C)C(F)(F)F)c1 [Alpelisib] (partner 2 µM)
In short: as §1

RAF265 + Decitabine = compound: Cn1c(Nc2ccc(C(F)(F)F)cc2)nc2cc(Oc3ccnc(-c4ncc(C(F)(F)F)[nH]4)c3)ccc21 [RAF265] + Nc1ncn([C@H]2C[C@H](O)[C@@H](CO)O2)c(=O)n1 [Decitabine] (partner 2 µM)
In short: as §1

Cell Line | relative viability (IPA-3 + Trametinib; first compound 0.2 µM) | relative viability (IPA-3 + Trametinib; first compound 0.6325 µM) | relative viability (IPA-3 + Trametinib; first compound 2 µM) | relative viability (IPA-3 + Trametinib; first compound 6.325 µM) | relative viability (IPA-3 + Trametinib; first compound 20 µM) | relative viability (IPA-3 + Pemetrexed; first compound 0.2 µM) | relative viability (IPA-3 + Pemetrexed; first compound 0.6325 µM) | relative viability (IPA-3 + Pemetrexed; first compound 2 µM) | relative viability (IPA-3 + Pemetrexed; first compound 6.325 µM) | relative viability (IPA-3 + Pemetrexed; first compound 20 µM) | relative viability (RAF265 + Alpelisib; first compound 0.01 µM) | relative viability (RAF265 + Alpelisib; first compound 0.03162 µM) | relative viability (RAF265 + Alpelisib; first compound 0.1 µM) | relative viability (RAF265 + Alpelisib; first compound 0.3162 µM) | relative viability (RAF265 + Alpelisib; first compound 1 µM) | relative viability (RAF265 + Decitabine; first compound 0.01 µM) | relative viability (RAF265 + Decitabine; first compound 0.03162 µM) | relative viability (RAF265 + Decitabine; first compound 0.1 µM) | relative viability (RAF265 + Decitabine; first compound 0.3162 µM) | relative viability (RAF265 + Decitabine; first compound 1 µM)
NCI-H2405 | 0.683 | 0.639 | 0.511 | 0.628 | 0.81 | 1.19 | 1.07 | 1.11 | 0.998 | 0.962 | 0.808 | 0.858 | 0.863 | 0.712 | 0.297 | 0.825 | 0.776 | 0.727 | 0.607 | 0.448
LCLC-103H | 0.693 | 0.686 | 0.718 | 0.687 | 0.675 | 0.474 | 0.463 | 0.461 | 0.504 | 0.476 | 0.862 | 1.02 | 0.854 | 0.745 | 0.461 | 0.767 | 0.714 | 0.682 | 0.695 | 0.367
NCI-H460 | 0.133 | 0.145 | 0.141 | 0.129 | 0.104 | 0.0552 | 0.0621 | 0.0636 | 0.0626 | 0.0707 | 0.543 | 0.356 | 0.481 |  | 0.173 | 0.505 | 0.458 | 0.567 | 0.499 | 0.48
NCI-H1755 | 0.764 | 0.797 | 0.739 | 0.739 | 0.753 | 0.621 | 0.44 | 0.495 | 0.399 | 0.398 | 0.966 | 0.864 | 0.779 | 0.486 | 0.408 | 0.693 | 0.661 | 0.728 | 0.723 | 0.642
NCI-H358 | 0.136 | 0.132 | 0.134 | 0.134 | 0.114 | 0.168 | 0.172 | 0.159 | 0.162 | 0.158 | 0.984 | 0.6 | 0.477 | 0.382 | 0.282 | 0.25 | 0.206 | 0.164 | 0.15 | 0.154
NCI-H1734 | 0.661 | 0.628 | 0.707 | 0.618 | 0.72 | 0.412 | 0.46 | 0.436 | 0.365 | 0.383 | 0.668 | 0.529 | 0.589 | 0.532 | 0.333 | 0.515 | 0.424 | 0.47 | 0.41 | 0.304
EPLC-272H | 0.327 | 0.337 | 0.273 | 0.301 | 0.319 | 0.415 | 0.309 | 0.337 | 0.355 | 0.371 | 0.847 | 0.792 | 0.801 | 0.478 | 0.367 | 0.409 | 0.34 | 0.371 | 0.243 | 0.231
NCI-H2126 | 0.569 | 0.56 | 0.521 | 0.501 | 0.6 | 0.726 | 0.706 | 0.721 | 0.678 | 0.712 | 0.75 | 0.751 | 0.731 | 0.663 | 0.519 | 0.607 | 0.56 | 0.563 | 0.573 | 0.412
